Experimental data taken from patent US5622967A, “Quinolone carboxamide Calpain inhibitors” (Sterling Winthrop, Inc., priority 1995, dated 1997).

Molecular target: T1, human calpain I (Homo sapiens, UniProt P07384)
T1 construct: The isolation of calpain from human erythrocytes was similar to that described by Wang et al. (1988); from tissue; host or cells: human red blood cells (packed red cells, American Red Cross); partially purified on DEAE-Sephacel and phenyl-Sepharose CL-4B
T1 sequence (P07384 1-714): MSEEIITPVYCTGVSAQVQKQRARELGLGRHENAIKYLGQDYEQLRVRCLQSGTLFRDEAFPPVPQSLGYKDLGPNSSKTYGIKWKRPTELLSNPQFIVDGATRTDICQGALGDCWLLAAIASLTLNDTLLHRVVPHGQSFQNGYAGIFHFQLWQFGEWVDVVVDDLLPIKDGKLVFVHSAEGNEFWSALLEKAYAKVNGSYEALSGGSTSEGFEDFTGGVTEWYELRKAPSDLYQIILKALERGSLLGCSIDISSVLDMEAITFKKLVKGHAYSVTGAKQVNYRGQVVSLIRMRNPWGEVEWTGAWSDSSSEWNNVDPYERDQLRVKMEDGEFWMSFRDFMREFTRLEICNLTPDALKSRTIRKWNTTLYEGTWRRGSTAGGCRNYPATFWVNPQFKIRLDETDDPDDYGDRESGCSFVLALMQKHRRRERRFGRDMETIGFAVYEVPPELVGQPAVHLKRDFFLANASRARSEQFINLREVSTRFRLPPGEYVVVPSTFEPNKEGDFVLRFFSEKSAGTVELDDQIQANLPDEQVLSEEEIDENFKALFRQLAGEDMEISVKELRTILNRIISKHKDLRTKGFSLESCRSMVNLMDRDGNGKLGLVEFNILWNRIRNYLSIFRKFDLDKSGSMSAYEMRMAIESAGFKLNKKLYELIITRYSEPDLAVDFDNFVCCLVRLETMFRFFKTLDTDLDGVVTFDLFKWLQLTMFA
T1 sequence (P04632 1-268 partner): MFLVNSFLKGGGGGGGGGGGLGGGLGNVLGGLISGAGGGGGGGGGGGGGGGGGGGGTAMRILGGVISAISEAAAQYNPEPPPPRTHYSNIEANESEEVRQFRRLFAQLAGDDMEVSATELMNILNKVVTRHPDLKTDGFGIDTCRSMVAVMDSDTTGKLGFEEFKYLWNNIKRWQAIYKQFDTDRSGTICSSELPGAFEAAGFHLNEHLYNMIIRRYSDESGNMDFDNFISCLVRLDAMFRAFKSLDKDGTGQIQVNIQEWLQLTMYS
Assay: Calpain I Inhibition Assay (3H-acetyl casein degradation)
Type: biochemical
Details: human erythrocyte calpain I; 3H-acetyl Casein substrate; 25° C., 2 hours incubation; read-out: IC50 against human calpain I
Procedure: Compounds of the present invention were tested for calpain I inhibition activity using the following assay method.
Calpain I InhibitionAssay
Isolation of Human erythrocyte Calpain I
Human red blood cells were obtained from the Northeastern New York Chapter of the American Red Cross. The isolation of calpain from human erythrocytes was similar to that described by Wang et al. (1988). One unit of in-dated packed red cells was diluted with an equal volume of diluting/wash solution and centrifuged. The supernatant was removed and the procedure was repeated. The washed cells were pooled, lysed with 700 mL of lysing solution and centrifuged to remove cell debris. The membrane-free hemolysate was added to 500 mL DEAE-sephacel and the slurry was stirred gently at 4° C. for 1 hour.
Batch elution was done using DEAE-sephacel wash solution to remove a large amount of unwanted protein, most of which was hemoglobin. The slurry was poured into a column connected in tandem to a phenyl-sepharose CL-4B column. Material eluted from the DEAE-sephacel was applied directly to the phenyl-sepharose CL-4B. The phenyl-sepharose CL-4B column was washed first with 75 mM NaCl and then with no salt. Calpain begins to disassociate from the […] with the 75 mM NaCl but the majority should adhere to the column until the salt is removed. Fractions were collected (20 mL), assayed for caseinolytic activity with and without calpastatin and pooled accordingly. The pooled fractions were concentrated using an Amicon stirred cell equipped with a YK-10 membrane. Calpain was stored at 4° C. with 10 mM EDTA and 5 mM 2-mercaptoethanol and is stable for at least 6 months.
The tritated assay is a modification of that described by Gopalakrishna, R. and Barsky, S.H., Anal. Biochem., 148, 413,1985. All reagents, compound 25 ul, HEPES buffer 25 ul, CaCl2 50 ul, enzyme 50 ul, and ^3 H-acetyl Casein, were combined in 1 mL polystyrene titer plates. The plates were preincubated at 25° C. for 5 min with gentle shaking prior to the addition of substrate. The incubation was continued for an additional 2 hours and was terminated with the addition of 0.5 mL ice cold 5% TCA. Unlabled casein was added, samples were centrifuged and 0.5 mL of the supernatant was counted in 5 mL of Ready Protein liquid scintillation cocktail for 2 min. This assay measures ^3 H-acetyl Casein degradation as an endpoint for calpain activity.

IC50	Structure (SMILES)
1.7 µM	NC(=O)c1cn(-c2ccc(O)cc2Cl)c2cc(-c3ccoc3)ccc2c1=O [Example 10, 1,4-Dihydro-1-(2-chloro-4-hydroxyphenyl)-4-oxo-7-(3-furyl)-3-quinolinecarboxamide]
0.6 µM	NC(=O)c1cn(-c2ccc(O)cc2Cl)c2cc(-c3ccncc3)ccc2c1=O [Example 8, 1,4-Dihydro-1-(2-chloro-4-hydroxyphenyl)-4-oxo-7-(4-pyridinyl)-3-quinolinecarboxamide]
1.7 µM	NC(=O)c1cn(-c2ccc(O)cc2Cl)c2cc(-c3ccnnc3)ccc2c1=O [Example 12, 1,4-Dihydro-1-(2-chloro-4-hydroxyphenyl)-4-oxo-7-(4-pyridazinyl)-3-quinolinecarboxamide]
0.51 µM	Cc1cc(O)ccc1-n1cc(C(N)=O)c(=O)c2ccc(-c3ccncc3)cc21 [Example 6, 1,4-Dihydro-1-(2-methyl-4-hydroxyphenyl)-4-oxo-7-(4-pyridinyl)-3-quinolinecarboxamide]
0.57 µM	NC(=O)c1cn(-c2ccc(O)cc2Cl)c2cc(-c3cc[nH]n3)ccc2c1=O [Example 13, 1,4-Dihydro-1-(2-chloro-4-hydroxyphenyl)-4-oxo-7-(3-pyrazolyl)-3-quinolinecarboxamide]
12 µM	NC(=O)c1cn(-c2ccc(O)cc2Cl)c2cc(-c3cccnc3)ccc2c1=O [Example 9, 1,4,Dihydro-1-(2-chloro-4-hydroxyphenyl)-4-oxo-7-(3-pyridinyl)-3-quinolinecarboxamide]
16 µM	NC(=O)c1cn(-c2ccc(O)cc2C(F)(F)F)c2cc(-c3ccncc3)ccc2c1=O [Example 7, 1,4-Dihydro-1-(2-trifluoromethyl-4-hydroxyphenyl)-4-oxo-7-(4-pyridinyl)-3-quinolinecarboxamide]
7 µM	NC(=O)c1cn(-c2ccc(O)c(O)c2)c2cc(-c3ccncc3)ccc2c1=O [Example 2, 1,4,Dihydro-1-(3.4-dihydroxyphenyl)-4-oxo-7-(4-pyridinyl),3-quinolinecarboxamide]
5 µM	NC(=O)c1cn(-c2ccc(O)c(F)c2)c2cc(-c3ccncc3)ccc2c1=O [Example 5, 1,4-Dihydro-1-(3-fluoro-4-hydroxyphenyl)-4-oxo-7-(4-pyridinyl)-3-quinolinecarboxamide]
2 µM	NC(=O)c1cn(-c2ccc(O)cc2)c2cc(-c3ccncc3)ccc2c1=O [Example 1, 1,4-Dihydro-1-(4-hydroxyphenyl)-4-oxo-7-(4-pyridinyl)=3-quinolinecarboxamide]
1.7 µM	NC(=O)c1cn(-c2ccc(O)cc2Cl)c2cc(-c3ccncc3Cl)ccc2c1=O [Example 11]
7.4 µM	NC(=O)c1cn(-c2ccc(O)cc2F)c2cc(-c3ccncc3)ccc2c1=O [Example 4, 1,4-Dihydro-1-(2-fluoro-4-hydroxyphenyl)-4-oxo-7-(4-pyridinyl)-3-quinolinecarboxamide]
2 µM	NC(=O)c1cn(-c2ccc(O)c(Cl)c2)c2cc(-c3ccncc3)ccc2c1=O [Example 3, 1,4-Dihydro-1-(3-chloro-4-hydroxyphenyl)-4-oxo-7-(4-pyridinyl)-3-quinolinecarboxamide]
